Key:
HepG2 = experiment: In vitro cell proliferation assay (MTT); assay type: cell-based; settings: Homo sapiens, HepG2, 72 h
How it was run: (§1)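 Cells were seeded at 5×10^3 per well and exposed in duplicate to escalating compound concentrations from 10 nM to 3 μM for 72 hr. Proliferation was then measured by MTT reduction.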

HuCCT1 = experiment: In vitro cell proliferation assay (MTT); assay type: cell-based; settings: Homo sapiens, HuCCT-1, 72 h
How it was run: as §1

A549 = experiment: In vitro cell proliferation assay (MTT); assay type: cell-based; settings: Homo sapiens, A549, 72 h
How it was run: as §1

H1975 = experiment: In vitro cell proliferation assay (MTT); assay type: cell-based; settings: Homo sapiens, NCI-H1975, 72 h
How it was run: as §1

HuH6 Clone 5 = experiment: In vitro cell proliferation assay (MTT); assay type: cell-based; settings: HUH-6-clone5, 72 h
How it was run: as §1

HeLa = experiment: In vitro cell proliferation assay (MTT); assay type: cell-based; settings: Homo sapiens, 72 h
How it was run: as §1

HuH7 = experiment: In vitro cell proliferation assay (MTT); assay type: cell-based; settings: Homo sapiens, Huh-7, 72 h
How it was run: as §1

MDA-MB-231 = experiment: In vitro cell proliferation assay (MTT); assay type: cell-based; settings: Homo sapiens, MDA-MB-231, 72 h
How it was run: as §1

BxPC-3 = experiment: In vitro cell proliferation assay (MTT); assay type: cell-based; settings: Homo sapiens, BXPC-3, 72 h
How it was run: as §1

HT29 = experiment: In vitro cell proliferation assay (MTT); assay type: cell-based; settings: Homo sapiens, HT-29, 72 h
How it was run: as §1

HUVEC = experiment: In vitro cell proliferation assay (MTT); assay type: cell-based; settings: Homo sapiens, 72 h
Experimental: Cancer cell lines (5×10^3 cells per well) or HUVEC (1×10^4 cells per well) or HRMEC (1×10^4 cells per well) were distributed in 96-well plates and incubating in duplicate with escalating concentrations (10 nM to 3 μM) of compounds for 72 hr. Cell proliferation was measured using MTT (3 [4,5-dimethylthiazol-2-yl]-2,5-diphenyltetrazolium bromide).

PDGFRA (PDGFR alpha) = target: T1, PDGFRA (PDGFR alpha) (Homo sapiens, UniProt P16234); experiment: In vitro kinase assay (Z′-LYTE); assay type: biochemical; settings: read-out: % of inhibition of the kinase compared to the control
T1 construct: purchased Invitrogen
How it was run: (§2)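 Percent inhibition is derived from a coupled-enzyme fluorescence format in which unphosphorylated FRET peptide is preferentially proteolysed. Compounds are screened once at 100 nM (10 μM against ABL T315I) in 1% DMSO, with ATP at its apparent Km.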

FGFR2 = target: T2, FGFR2 (Homo sapiens, UniProt P21802); experiment: In vitro kinase assay (Z′-LYTE); assay type: biochemical; settings: read-out: % of inhibition of the kinase compared to the control
T2 construct: purchased Invitrogen
T2 sequence (P21802 22-821): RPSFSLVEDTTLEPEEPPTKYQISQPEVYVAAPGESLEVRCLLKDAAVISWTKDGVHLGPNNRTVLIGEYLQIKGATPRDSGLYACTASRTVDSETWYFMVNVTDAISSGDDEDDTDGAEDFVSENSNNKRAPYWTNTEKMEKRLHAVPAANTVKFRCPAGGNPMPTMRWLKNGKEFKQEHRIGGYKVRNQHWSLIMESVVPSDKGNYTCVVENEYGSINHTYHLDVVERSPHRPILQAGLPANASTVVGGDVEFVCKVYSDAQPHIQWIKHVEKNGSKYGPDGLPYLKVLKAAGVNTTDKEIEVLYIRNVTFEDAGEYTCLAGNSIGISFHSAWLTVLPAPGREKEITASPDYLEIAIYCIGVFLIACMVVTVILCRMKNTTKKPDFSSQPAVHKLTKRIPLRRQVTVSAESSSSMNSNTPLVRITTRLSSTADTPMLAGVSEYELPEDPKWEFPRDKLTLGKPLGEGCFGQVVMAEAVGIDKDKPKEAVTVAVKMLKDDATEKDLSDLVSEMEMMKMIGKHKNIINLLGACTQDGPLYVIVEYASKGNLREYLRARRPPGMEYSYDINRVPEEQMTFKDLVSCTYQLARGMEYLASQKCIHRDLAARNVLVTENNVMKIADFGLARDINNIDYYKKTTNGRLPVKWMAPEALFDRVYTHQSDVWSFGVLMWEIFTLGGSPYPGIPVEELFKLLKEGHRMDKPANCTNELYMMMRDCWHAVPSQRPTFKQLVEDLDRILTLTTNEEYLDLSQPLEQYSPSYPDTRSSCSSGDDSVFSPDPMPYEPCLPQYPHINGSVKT
How it was run: as §2

BRAF = target: T3, BRAF (Homo sapiens, UniProt P15056); experiment: In vitro kinase assay (Z′-LYTE); assay type: biochemical; settings: compound 100 nM; ATP 100 μM; read-out: % of inhibition of the kinase compared to the control
T3 construct: purchased Invitrogen
How it was run: as §2

SRC = target: T4, SRC (Homo sapiens, UniProt P12931); experiment: In vitro kinase assay (Z′-LYTE); assay type: biochemical; settings: read-out: % of inhibition of the kinase compared to the control
T4 construct: purchased Invitrogen
T4 sequence (P12931 whole entry): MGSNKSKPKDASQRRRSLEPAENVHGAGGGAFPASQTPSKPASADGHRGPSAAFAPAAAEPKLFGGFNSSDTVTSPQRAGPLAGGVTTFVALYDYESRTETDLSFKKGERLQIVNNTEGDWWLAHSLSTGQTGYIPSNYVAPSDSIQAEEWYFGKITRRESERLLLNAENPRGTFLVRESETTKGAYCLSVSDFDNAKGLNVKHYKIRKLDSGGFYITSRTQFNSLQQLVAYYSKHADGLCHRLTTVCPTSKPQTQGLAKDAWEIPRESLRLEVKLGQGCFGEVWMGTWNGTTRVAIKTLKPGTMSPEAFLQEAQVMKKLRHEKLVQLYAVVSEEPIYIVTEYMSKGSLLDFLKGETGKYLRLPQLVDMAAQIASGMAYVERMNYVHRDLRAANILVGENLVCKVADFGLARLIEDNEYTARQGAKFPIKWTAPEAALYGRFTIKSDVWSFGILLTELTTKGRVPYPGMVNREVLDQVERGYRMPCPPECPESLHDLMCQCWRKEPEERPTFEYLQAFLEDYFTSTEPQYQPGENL
How it was run: as §2

EGFR (ErbB1) T790M L858R = target: T5, EGFR (ErbB1) T790M L858R (Homo sapiens, UniProt P00533, L858R/T790M); experiment: In vitro kinase assay (Z′-LYTE); assay type: biochemical; settings: read-out: % of inhibition of the kinase compared to the control
T5 construct: purchased Invitrogen
How it was run: as §2

KDR (VEGFR2) = target: T6, KDR (VEGFR2) (Homo sapiens, UniProt P35968); experiment: In vitro kinase assay (Z′-LYTE); assay type: biochemical; settings: read-out: % of inhibition of the kinase compared to the control
T6 construct: purchased Invitrogen
How it was run: as §2

EGFR (ErbB1) = target: T7, EGFR (ErbB1) (Homo sapiens, UniProt P00533); experiment: In vitro kinase assay (Z′-LYTE); assay type: biochemical; settings: read-out: % of inhibition of the kinase compared to the control
T7 construct: purchased Invitrogen
T7 sequence (P00533 25-1210): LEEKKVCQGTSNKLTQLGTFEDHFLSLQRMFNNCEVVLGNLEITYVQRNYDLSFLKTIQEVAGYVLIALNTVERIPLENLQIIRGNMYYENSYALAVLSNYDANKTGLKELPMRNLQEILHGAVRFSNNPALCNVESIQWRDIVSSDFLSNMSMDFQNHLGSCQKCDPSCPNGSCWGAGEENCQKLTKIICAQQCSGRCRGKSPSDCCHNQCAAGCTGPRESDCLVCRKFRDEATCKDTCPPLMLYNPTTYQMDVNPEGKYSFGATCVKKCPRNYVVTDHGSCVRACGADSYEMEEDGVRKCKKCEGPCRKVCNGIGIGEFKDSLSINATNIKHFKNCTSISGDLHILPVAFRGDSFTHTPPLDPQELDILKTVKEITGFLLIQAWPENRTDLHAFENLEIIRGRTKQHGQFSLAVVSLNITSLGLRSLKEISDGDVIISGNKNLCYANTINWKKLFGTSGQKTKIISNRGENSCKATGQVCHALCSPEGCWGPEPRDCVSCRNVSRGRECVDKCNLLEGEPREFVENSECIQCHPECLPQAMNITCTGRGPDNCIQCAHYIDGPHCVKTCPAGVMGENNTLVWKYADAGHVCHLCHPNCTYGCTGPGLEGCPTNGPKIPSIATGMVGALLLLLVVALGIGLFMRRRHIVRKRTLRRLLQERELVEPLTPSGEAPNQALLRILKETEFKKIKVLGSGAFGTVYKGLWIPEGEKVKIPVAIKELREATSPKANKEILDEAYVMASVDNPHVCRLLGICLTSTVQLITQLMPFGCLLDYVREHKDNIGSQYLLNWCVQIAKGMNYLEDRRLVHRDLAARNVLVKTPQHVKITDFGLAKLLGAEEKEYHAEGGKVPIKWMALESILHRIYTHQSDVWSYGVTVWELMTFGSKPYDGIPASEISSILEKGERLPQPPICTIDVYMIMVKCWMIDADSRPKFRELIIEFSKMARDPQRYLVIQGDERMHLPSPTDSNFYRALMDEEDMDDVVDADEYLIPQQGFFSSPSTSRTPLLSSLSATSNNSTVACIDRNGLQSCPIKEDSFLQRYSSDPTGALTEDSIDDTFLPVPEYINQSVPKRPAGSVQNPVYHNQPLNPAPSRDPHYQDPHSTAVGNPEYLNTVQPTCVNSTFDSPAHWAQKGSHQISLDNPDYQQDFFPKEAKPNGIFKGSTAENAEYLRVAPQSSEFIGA
How it was run: as §2

PC-3 = experiment: In vitro cell proliferation assay (MTT); assay type: cell-based; settings: Homo sapiens, PC-3, 72 h
How it was run: as §1

ABL T315I = target: T8, ABL T315I (Homo sapiens, UniProt P00519, T315I); experiment: In vitro kinase assay (Z′-LYTE); assay type: biochemical; settings: read-out: % of inhibition of the kinase compared to the control
T8 construct: purchased Invitrogen
How it was run: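 Peptide/kinase mix combined with ATP (apparent Km) in 50 mM HEPES pH 7.5, 10 mM MgCl2, 1 mM EGTA, 0.01% BRIJ-35; compound present at 100 nM, except 10 μM for ABL T315I; DMSO 1% final. Protease development, then FRET emission ratio.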

PDGFRB = target: T9, PDGFRB (Homo sapiens, UniProt P09619); experiment: In vitro kinase assay (Z′-LYTE); assay type: biochemical; settings: read-out: % of inhibition of the kinase compared to the control
T9 construct: purchased Invitrogen
T9 sequence (P09619 33-1106): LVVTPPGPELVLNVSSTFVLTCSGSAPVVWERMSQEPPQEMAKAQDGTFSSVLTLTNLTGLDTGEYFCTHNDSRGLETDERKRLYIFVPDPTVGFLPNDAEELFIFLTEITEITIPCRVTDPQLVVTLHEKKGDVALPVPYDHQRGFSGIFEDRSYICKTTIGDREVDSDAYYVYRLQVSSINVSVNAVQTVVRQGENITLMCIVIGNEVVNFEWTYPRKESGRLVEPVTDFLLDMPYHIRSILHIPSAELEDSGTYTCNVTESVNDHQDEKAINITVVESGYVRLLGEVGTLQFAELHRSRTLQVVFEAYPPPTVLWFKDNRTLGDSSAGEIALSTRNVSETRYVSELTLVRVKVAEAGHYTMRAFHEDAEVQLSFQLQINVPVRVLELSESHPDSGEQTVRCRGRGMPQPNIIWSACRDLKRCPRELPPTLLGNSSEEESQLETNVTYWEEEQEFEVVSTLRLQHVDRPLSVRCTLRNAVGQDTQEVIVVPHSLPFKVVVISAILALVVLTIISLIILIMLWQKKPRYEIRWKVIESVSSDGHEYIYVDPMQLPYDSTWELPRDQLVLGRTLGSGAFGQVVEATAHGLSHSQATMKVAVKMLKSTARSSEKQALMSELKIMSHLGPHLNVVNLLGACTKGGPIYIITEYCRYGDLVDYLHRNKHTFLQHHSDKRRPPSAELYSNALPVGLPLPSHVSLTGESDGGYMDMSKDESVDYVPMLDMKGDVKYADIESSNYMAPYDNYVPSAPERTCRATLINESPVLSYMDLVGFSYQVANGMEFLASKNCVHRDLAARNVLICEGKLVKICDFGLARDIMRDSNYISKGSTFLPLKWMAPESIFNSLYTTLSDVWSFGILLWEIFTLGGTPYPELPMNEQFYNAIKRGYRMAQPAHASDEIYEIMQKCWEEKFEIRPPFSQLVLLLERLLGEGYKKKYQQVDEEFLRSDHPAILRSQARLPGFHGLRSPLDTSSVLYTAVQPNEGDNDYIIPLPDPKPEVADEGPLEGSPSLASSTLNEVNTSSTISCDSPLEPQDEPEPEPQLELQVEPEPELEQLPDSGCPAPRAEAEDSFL
How it was run: as §2

FGFR1 = target: T10, FGFR1 (Homo sapiens, UniProt P11362); experiment: In vitro kinase assay (Z′-LYTE); assay type: biochemical; settings: read-out: % of inhibition of the kinase compared to the control
T10 construct: purchased Invitrogen
How it was run: as §2

ABL = target: T11, ABL (Homo sapiens, UniProt P00519); experiment: In vitro kinase assay (Z′-LYTE); assay type: biochemical; settings: read-out: % of inhibition of the kinase compared to the control
T11 construct: purchased Invitrogen

VEGFR1 = target: T12, VEGFR1 (Homo sapiens, UniProt P17948); experiment: In vitro kinase assay (Z′-LYTE); assay type: biochemical; settings: read-out: % of inhibition of the kinase compared to the control
T12 construct: purchased Invitrogen
T12 sequence (P17948 27-1338): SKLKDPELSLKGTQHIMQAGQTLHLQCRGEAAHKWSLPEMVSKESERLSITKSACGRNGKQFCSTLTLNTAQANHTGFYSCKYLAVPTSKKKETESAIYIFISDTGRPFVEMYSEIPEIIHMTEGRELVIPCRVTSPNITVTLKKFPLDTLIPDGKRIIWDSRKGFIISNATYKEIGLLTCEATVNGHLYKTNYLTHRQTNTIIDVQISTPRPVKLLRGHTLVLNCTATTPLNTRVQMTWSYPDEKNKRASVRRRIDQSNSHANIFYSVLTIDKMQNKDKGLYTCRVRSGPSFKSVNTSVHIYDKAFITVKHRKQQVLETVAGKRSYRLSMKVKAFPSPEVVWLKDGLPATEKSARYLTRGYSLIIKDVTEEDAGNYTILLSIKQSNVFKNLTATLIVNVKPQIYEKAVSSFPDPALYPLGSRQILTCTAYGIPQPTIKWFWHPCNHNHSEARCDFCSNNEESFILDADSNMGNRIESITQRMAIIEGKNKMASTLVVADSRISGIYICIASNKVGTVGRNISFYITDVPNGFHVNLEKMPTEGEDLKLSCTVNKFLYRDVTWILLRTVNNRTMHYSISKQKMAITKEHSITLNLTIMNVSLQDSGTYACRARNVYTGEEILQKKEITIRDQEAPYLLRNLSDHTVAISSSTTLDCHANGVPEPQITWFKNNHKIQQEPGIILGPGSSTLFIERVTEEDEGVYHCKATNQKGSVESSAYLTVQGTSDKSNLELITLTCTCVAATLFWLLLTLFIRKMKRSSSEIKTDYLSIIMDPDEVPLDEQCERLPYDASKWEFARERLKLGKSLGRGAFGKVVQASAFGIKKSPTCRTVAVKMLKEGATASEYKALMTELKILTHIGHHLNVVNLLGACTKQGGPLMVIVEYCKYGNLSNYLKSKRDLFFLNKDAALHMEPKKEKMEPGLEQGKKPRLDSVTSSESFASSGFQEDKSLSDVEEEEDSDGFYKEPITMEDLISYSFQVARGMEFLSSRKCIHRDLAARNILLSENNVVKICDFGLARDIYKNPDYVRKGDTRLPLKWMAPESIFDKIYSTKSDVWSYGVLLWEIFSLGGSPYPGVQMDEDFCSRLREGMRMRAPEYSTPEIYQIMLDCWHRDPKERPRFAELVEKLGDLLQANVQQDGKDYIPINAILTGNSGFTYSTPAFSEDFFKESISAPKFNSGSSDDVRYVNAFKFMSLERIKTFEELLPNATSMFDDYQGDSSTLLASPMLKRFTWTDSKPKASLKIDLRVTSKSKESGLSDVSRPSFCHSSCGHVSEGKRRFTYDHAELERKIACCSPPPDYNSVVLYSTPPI
How it was run: as §2

COC(=O)c1cc2cc(NCc3cc(NC(=O)c4cc(CN5CCN(C)CC5)cc(C(F)(F)F)c4)ccc3C)cnc2[nH]1 [OR0699]
EC50 (HepG2): 100 to 1000 nM | EC50 (HuCCT1): 100 to 1000 nM | EC50 (A549): ≤ 100 nM | EC50 (H1975): 100 to 1000 nM | EC50 (HuH6 Clone 5): ≥ 1000 nM | EC50 (HeLa): 100 to 1000 nM | EC50 (HuH7): 100 to 1000 nM | EC50 (MDA-MB-231): 100 to 1000 nM | EC50 (BxPC-3): ≤ 100 nM | EC50 (HT29): ≤ 100 nM | EC50 (HUVEC): 100 to 1000 nM | inhibition at 0.1 µM (PDGFRA (PDGFR alpha)): ≥ 50% | inhibition at 0.1 µM (FGFR2): < 50% | inhibition at 0.1 µM (BRAF): ≥ 50% | inhibition at 0.1 µM (SRC): ≥ 50% | inhibition at 0.1 µM (EGFR (ErbB1) T790M L858R): < 50% | inhibition at 0.1 µM (KDR (VEGFR2)): ≥ 50% | inhibition at 0.1 µM (EGFR (ErbB1)): ≥ 50%

COC(=O)c1cc2cc(NCc3cc(NC(=O)c4cc(N(C)C)cc(C(F)(F)F)c4)ccc3C)cnc2[nH]1 [OR0597]
EC50 (HepG2): ≤ 100 nM | EC50 (A549): 100 to 1000 nM | EC50 (H1975): 100 to 1000 nM | EC50 (MDA-MB-231): ≤ 100 nM | EC50 (BxPC-3): 100 to 1000 nM | EC50 (HT29): 100 to 1000 nM | EC50 (HUVEC): 100 to 1000 nM | EC50 (PC-3): ≥ 1000 nM | inhibition at 0.1 µM (PDGFRA (PDGFR alpha)): < 50% | inhibition at 10 µM (ABL T315I): ≥ 50% | inhibition at 0.1 µM (FGFR2): < 50% | inhibition at 0.1 µM (PDGFRB): < 50% | inhibition at 0.1 µM (FGFR1): < 50% | inhibition at 10 µM (ABL): ≥ 50% | inhibition at 0.1 µM (VEGFR1): < 50% | inhibition at 0.1 µM (BRAF): < 50% | inhibition at 0.1 µM (SRC): ≥ 50% | inhibition at 0.1 µM (EGFR (ErbB1) T790M L858R): < 50% | inhibition at 0.1 µM (KDR (VEGFR2)): < 50% | inhibition at 0.1 µM (EGFR (ErbB1)): < 50%

COC(=O)c1cc2cc(NCc3cc(NC(=O)c4ccccc4OC)ccc3C)cnc2[nH]1 [OR1062]
EC50 (HepG2): ≥ 1000 nM | EC50 (A549): ≥ 1000 nM | EC50 (HeLa): ≥ 1000 nM | EC50 (MDA-MB-231): 100 to 1000 nM | EC50 (HUVEC): 100 to 1000 nM | inhibition at 0.1 µM (PDGFRA (PDGFR alpha)): ≥ 50% | inhibition at 0.1 µM (FGFR2): < 50% | inhibition at 0.1 µM (BRAF): ≥ 50% | inhibition at 0.1 µM (SRC): ≥ 50% | inhibition at 0.1 µM (KDR (VEGFR2)): < 50% | inhibition at 0.1 µM (EGFR (ErbB1)): < 50%

COC(=O)c1cc2cc(NCc3cc(NC(=O)c4cc(Nc5cc[nH]n5)cc(C(F)(F)F)c4)ccc3C)cnc2[nH]1 [OR0642]
EC50 (HepG2): ≤ 100 nM | EC50 (A549): 100 to 1000 nM | EC50 (H1975): ≥ 1000 nM | EC50 (MDA-MB-231): ≤ 100 nM | EC50 (BxPC-3): 100 to 1000 nM | EC50 (HT29): 100 to 1000 nM | EC50 (HUVEC): ≤ 100 nM | EC50 (PC-3): ≥ 1000 nM | inhibition at 0.1 µM (PDGFRA (PDGFR alpha)): < 50% | inhibition at 10 µM (ABL T315I): ≥ 50% | inhibition at 0.1 µM (FGFR2): < 50% | inhibition at 0.1 µM (PDGFRB): < 50% | inhibition at 0.1 µM (FGFR1): < 50% | inhibition at 10 µM (ABL): ≥ 50% | inhibition at 0.1 µM (VEGFR1): < 50% | inhibition at 0.1 µM (BRAF): < 50% | inhibition at 0.1 µM (SRC): ≥ 50% | inhibition at 0.1 µM (EGFR (ErbB1) T790M L858R): < 50% | inhibition at 0.1 µM (KDR (VEGFR2)): < 50% | inhibition at 0.1 µM (EGFR (ErbB1)): ≥ 50%

COC(=O)c1cc2cc(NCc3cc(NC(=O)c4ccc(Cn5cnc(C)c5)c(C(F)(F)F)c4)ccc3C)cnc2[nH]1 [OR0639]
EC50 (HepG2): 100 to 1000 nM | EC50 (HuCCT1): ≥ 1000 nM | EC50 (A549): 100 to 1000 nM | EC50 (H1975): ≥ 1000 nM | EC50 (MDA-MB-231): 100 to 1000 nM | EC50 (BxPC-3): 100 to 1000 nM | EC50 (HT29): 100 to 1000 nM | EC50 (HUVEC): 100 to 1000 nM | EC50 (PC-3): ≥ 1000 nM | inhibition at 0.1 µM (PDGFRA (PDGFR alpha)): ≥ 50% | inhibition at 10 µM (ABL T315I): ≥ 50% | inhibition at 0.1 µM (FGFR2): < 50% | inhibition at 0.1 µM (PDGFRB): < 50% | inhibition at 0.1 µM (FGFR1): < 50% | inhibition at 10 µM (ABL): ≥ 50% | inhibition at 0.1 µM (VEGFR1): < 50% | inhibition at 0.1 µM (BRAF): ≥ 50% | inhibition at 0.1 µM (SRC): < 50% | inhibition at 0.1 µM (EGFR (ErbB1) T790M L858R): < 50% | inhibition at 0.1 µM (KDR (VEGFR2)): ≥ 50% | inhibition at 0.1 µM (EGFR (ErbB1)): ≥ 50%

From patent US9493455B2, “Azaindole derivatives as inhibitors of protein kinases” (ORIBASE PHARMA, priority 2012, dated 2016)
